This passage reports IC50 results from patent US20220144812A1, “QUINOLINE DERIVATIVES AND THEIR USE FOR THE TREATMENT OF CANCER” (Epizyme, Inc., priority 2019, published 2022).

Like-named read-outs stand apart in the source and are kept apart here.

For orientation: IC50 means the concentration at which inhibition is half-maximal.

Assay [1] relates to H3K18Ac in HB-CLS-2 cells. The assay can be described thus: H3K18AC in-cell western (ICW) assay. It is filed as cell-based. Particulars: H3K18Ac in-cell western; read-out: CREBBP ICW IC50. The method, boiled down: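 HB-CLS-2 cells seeded 16–24 hours before 2 hr compound treatment at 37° C, 5% CO2, then methanol-fixed. H3K18Ac detected with rabbit monoclonal primary (overnight, 4° C) and 800CW anti-rabbit secondary; DRAQ5 stained DNA. Plates imaged at 700 and 800 nm for integrated intensity; IC50 in μM.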

Assay [2] relates to 647V cells. Put plainly: High throughput proliferation (HTP) assay. As to conditions: high throughput proliferation, read-out: CREBBP HTP IC50. It is filed as cell-based. The method, boiled down:
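Exponentially growing 647V cells in DMEM with 15% FBS were treated in triplicate with increasing compound concentrations at 37° C, 5% CO2. Viable cell number was read by CellTiter-Glo luminescence on day 7; IC50 in micromolar.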

Assay [3] addresses T1, CREBBP (1084-1701) (Homo sapiens, UniProt Q92793).
T1 construct: measured in the following biochemical assay using CREBBP (1084-1701); purchased
Put plainly: Biochemical assay for CREBBP (1084-1701), SAMDI. As to conditions: SAMDI, read-out: CREBBP Biochemistry IC50. Put shortly: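 CREBBP (1084-1701) preincubated with compound 30 min at RT, then substrate mix (biotin-H3 11-25 K14R/K23R peptide, acetyl-CoA) added for 30 min at RT. Reaction stopped with formic acid, neutralised with sodium bicarbonate. Peptide acetylation read by SAMDI mass spectrometry to derive IC50.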

Assay [4] addresses T2, EP300 (P300(1048-1664)) (Homo sapiens, UniProt Q09472).
T2 construct: P300(1048-1664)
T2 sequence (Q09472 1048-1664): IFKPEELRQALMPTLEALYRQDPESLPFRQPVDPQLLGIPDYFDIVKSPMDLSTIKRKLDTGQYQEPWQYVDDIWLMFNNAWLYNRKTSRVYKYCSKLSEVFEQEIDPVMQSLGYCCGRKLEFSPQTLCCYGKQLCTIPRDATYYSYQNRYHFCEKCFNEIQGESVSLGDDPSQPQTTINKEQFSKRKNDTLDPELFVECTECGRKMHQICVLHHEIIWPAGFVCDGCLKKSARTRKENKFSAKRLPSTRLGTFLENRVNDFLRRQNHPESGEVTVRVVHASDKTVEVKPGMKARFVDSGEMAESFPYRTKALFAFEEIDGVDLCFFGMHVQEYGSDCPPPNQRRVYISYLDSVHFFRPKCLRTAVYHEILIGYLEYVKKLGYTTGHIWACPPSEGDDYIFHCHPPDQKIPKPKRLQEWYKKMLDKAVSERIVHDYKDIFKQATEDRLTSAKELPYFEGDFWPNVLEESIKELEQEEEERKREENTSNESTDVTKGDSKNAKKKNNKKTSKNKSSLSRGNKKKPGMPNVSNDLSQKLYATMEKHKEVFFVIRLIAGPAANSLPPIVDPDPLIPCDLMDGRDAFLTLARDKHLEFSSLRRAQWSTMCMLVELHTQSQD
Put plainly: Biochemical assay for EP300, SAMDI. Particulars: EP300, SAMDI; read-out: EP300 Biochemistry IC50. From the text:
The following example describes materials and methods relating to a biochemical assay for EP300. IC50 values (micromolar (μM)) are summarized in Table 1, Table 2, and Table 3 under the column labeled: “EP300 Biochemistry IC50 (micromolar).”

T1 sequence (Q92793 1084-1701): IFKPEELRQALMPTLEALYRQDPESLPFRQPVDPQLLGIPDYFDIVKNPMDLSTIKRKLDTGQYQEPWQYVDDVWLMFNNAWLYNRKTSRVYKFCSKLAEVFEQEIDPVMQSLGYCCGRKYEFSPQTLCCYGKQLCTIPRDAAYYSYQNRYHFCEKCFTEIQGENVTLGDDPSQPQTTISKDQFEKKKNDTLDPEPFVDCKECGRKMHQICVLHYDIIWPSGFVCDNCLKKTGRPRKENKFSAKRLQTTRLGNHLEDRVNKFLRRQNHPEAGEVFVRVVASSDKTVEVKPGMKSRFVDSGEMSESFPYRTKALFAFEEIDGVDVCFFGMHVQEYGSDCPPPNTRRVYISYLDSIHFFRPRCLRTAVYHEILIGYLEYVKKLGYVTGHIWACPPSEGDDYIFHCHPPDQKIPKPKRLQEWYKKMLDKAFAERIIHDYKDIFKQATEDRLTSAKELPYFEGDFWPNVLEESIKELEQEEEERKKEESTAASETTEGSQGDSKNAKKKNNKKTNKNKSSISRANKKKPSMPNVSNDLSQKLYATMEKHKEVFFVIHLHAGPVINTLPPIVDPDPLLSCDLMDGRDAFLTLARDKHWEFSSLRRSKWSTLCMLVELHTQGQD

`CCn1ncc(CN(C)C(=O)c2nc(-c3ccc(OCCO)c(F)c3)nc3ccc(Cl)cc23)c1C` [Compound 111]: the half-maximal inhibitory concentration (IC50) came to 2.6 µM in assay [1]; 2.4 µM in assay [2] (Homo sapiens, 647-V); 6.4 µM in assay [3]; 4.7 µM in assay [4].
Turning to `CCn1ncc(CN(C)C(=O)c2nc(-c3ccc(NCCNC)cn3)nc3ccc(Cl)cc23)c1C` [Compound 112], the half-inhibitory concentration (IC50) was found to be 2.7 µM in assay [1]; 2.1 µM in assay [2] (Homo sapiens, 647-V); 1.3 µM in assay [3]; 0.73 µM in assay [4].
`CCn1ncc(CN(C)C(=O)c2cc(-c3ccc(NCCN(C)C(=O)OC(C)(C)C)cn3)nc3ccc(Cl)cc23)c1C` [Compound 113]: the IC50 in assay [1] came out at 2.8 µM; in assay [2] (Homo sapiens, 647-V), 6.7 µM; in assay [3], 4.8 µM; in assay [4], 1.5 µM.
As to `CCn1ncc(CN(C)C(=O)c2nc(-c3ccc(OCCN(C)S(C)(=O)=O)c(OC)c3)nc3ccc(Cl)cc23)c1C` [Compound 114], the IC50 was 2.8 µM in assay [1]; 2.8 µM in assay [2] (Homo sapiens, 647-V); 5.2 µM in assay [3]; 4.3 µM in assay [4].
`CCn1ncc(CN(C)C(=O)c2nc(-c3cc(Cl)cc(NCCCN(C)C(=O)OC(C)(C)C)c3)nc3ccc(Cl)cc23)c1C` [Compound 115]: the IC50 in assay [1] was found to be 2.8 µM; in assay [2] (Homo sapiens, 647-V), 4.4 µM; in assay [3], 0.16 µM; in assay [4] it was 0.11 µM.
On to `CCn1ncc(CN(C)C(=O)c2nc(-c3cc(CNC)ccc3C)nc3ccc(Cl)cc23)c1C` [Compound 116], for which the IC50 in assay [1] was determined as 2.9 µM; in assay [2] (Homo sapiens, 647-V) it was 1.9 µM; in assay [3], 3.4 µM; in assay [4] it was 6.9 µM.
The corresponding values for `CCn1ncc(CN(C)C(=O)c2nc(-c3ccc(OCCNC(=O)OC(C)(C)C)c(Cl)c3)nc3ccc(Cl)cc23)c1C` [Compound 117] are 3 µM, 2.4 µM, 0.27 µM and 4.3 µM.
The like results for `CCn1ncc(CN(C)C(=O)c2cc(-c3cn(C)cn3)nc3ccc(Cl)cc23)c1C` [Compound 119] were, in that order, 3.3 µM, 0.69 µM, 4.5 µM and 1.3 µM.
The like results for `CCn1ncc(CN(C)C(=O)c2nc(-c3cc(Cl)cc(NCCN(C)C(=O)OC(C)(C)C)c3)nc3ccc(Cl)cc23)c1C` [Compound 121] were, in that order, 3.5 µM, 3.8 µM, 0.41 µM and 0.86 µM.
Take `CCn1ncc(CN(C)C(=O)c2cc(-c3ccc(OCC(=O)NC)c(OC)c3)nc3ccc(Cl)cc23)c1C` [Compound 122]: the IC50 in assay [1] came to 3.6 µM; in assay [2] (Homo sapiens, 647-V) it was 2.1 µM; in assay [3] it was 4.5 µM; in assay [4], 4.3 µM.
The like results for `CCn1ncc(CN(C)C(=O)c2nc(-c3cc(Cl)cc(CN4CCNCC4)c3)nc3ccc(Cl)cc23)c1C` [Compound 124] were, in that order, 3.9 µM, 4.1 µM, 0.37 µM and 1.4 µM.
Consider `CCn1ncc(CN(C)C(=O)c2nc(-c3cn[nH]c3)nc3ccc(Cl)cc23)c1C` [Compound 125], for which the concentration for half-maximal inhibition (IC50) in assay [1] was 4 µM; in assay [2] (Homo sapiens, 647-V) it was 4.1 µM; in assay [3] it was 6.3 µM; in assay [4], 3.5 µM.
For the compound `CCn1ncc(CN(C)C(=O)c2nc(-c3ccc(OCCCNC(=O)OC(C)(C)C)c(OC)c3)nc3ccc(Cl)cc23)c1C` [Compound 127], the IC50 in assay [1] was determined as 4.4 µM; in assay [2] (Homo sapiens, 647-V), 3.5 µM; in assay [3], 12 µM; in assay [4], 15 µM.
On to `CCn1ncc(CN(C)C(=O)c2nc(-c3cc(Cl)cc(OCCCNC)c3)nc3ccc(Cl)cc23)c1C` [Compound 128], for which the IC50 in assay [1] came out at 4.5 µM; in assay [2] (Homo sapiens, 647-V), 1.9 µM; in assay [3], 0.35 µM; in assay [4], 0.8 µM.
In the case of `CCn1ncc(CN(C)C(=O)c2cc(-n3cc(C)cn3)nc3ccc(Cl)cc23)c1C` [Compound 129], the IC50 came out at 4.6 µM in assay [1]; 8.3 µM in assay [2] (Homo sapiens, 647-V); 7.4 µM in assay [3]; 1.4 µM in assay [4].
The like results for `CCn1ncc(CN(C)C(=O)c2nc(-c3cccc(N)n3)nc3ccc(Cl)cc23)c1C` [Compound 131] were, in that order, 4.7 µM, 7.5 µM, 5.5 µM and 2.6 µM.
Turning to `CCn1ncc(CN(C)C(=O)c2nc(-c3ccc4[nH]nnc4c3)nc3ccc(Cl)cc23)c1C` [Compound 133], the 50% inhibitory concentration (IC50) amounted to 4.9 µM in assay [1]; 5.9 µM in assay [2] (Homo sapiens, 647-V); 0.1 µM in assay [3]; 0.47 µM in assay [4].
The like results for `CCn1ncc(CN(C)C(=O)c2nc(-c3ccnc(NC(C)=O)c3)nc3ccc(Cl)cc23)c1C` [Compound 135] were, in that order, 5.1 µM, 6.7 µM, 7.5 µM and 7.1 µM.
Take `CCn1ncc(CN(C)C(=O)c2nc(-c3ccc(OCCC(=O)NC)c(OC)c3)nc3ccc(Cl)cc23)c1C` [Compound 137]: the IC50 was determined as 5.3 µM in assay [1]; 4.7 µM in assay [2] (Homo sapiens, 647-V); 8.3 µM in assay [3]; 7.8 µM in assay [4].
Turning to `CCn1ncc(CN(C)C(=O)c2cc(-c3csc(CNC)n3)nc3ccc(Cl)cc23)c1C` [Compound 138], the concentration for half-maximal inhibition (IC50) in assay [1] was 5.9 µM; in assay [2] it was 8.3 µM; in assay [3], 12 µM; in assay [4] it was 5.2 µM.
`CCn1ncc(CN(C)C(=O)c2nc(-c3ccc(CN4CCNCC4)c(OC)c3)nc3ccc(Cl)cc23)c1C` [Compound 139]: the IC50 was determined as 5.9 µM in assay [1], 7.5 µM in assay [2], 6.8 µM in assay [3] and 7.4 µM in assay [4].
The corresponding values for `CCn1ncc(CN(C)C(=O)c2nc(-c3ccc(OCCNC(=O)OC(C)(C)C)c(C)c3)nc3ccc(Cl)cc23)c1C` [Compound 143] are 6.4 µM, 4.3 µM, 0.13 µM and 8.1 µM.
In the case of `CCn1ncc(CN(C)C(=O)c2nc(-c3cn(CCNC)nc3C)nc3ccc(Cl)cc23)c1C` [Compound 144], the half-inhibitory concentration (IC50) was found to be 8.4 µM in assay [1]; 3.3 µM in assay [2] (Homo sapiens, 647-V); 5.4 µM in assay [3]; 8.9 µM in assay [4].
With `CCn1ncc(CN(C)C(=O)c2nc(-c3cccc(-c4ccn[nH]4)c3)nc3ccc(Cl)cc23)c1C` [Compound 145], the IC50 in assay [1] is 6.5 µM; in assay [2] it was 9.9 µM; in assay [3], 2.8 µM; in assay [4] it was 1.9 µM.
As to `CCn1ncc(CN(C)C(=O)c2cc(-c3cnc(CN(C)C)[nH]3)nc3ccc(Cl)cc23)c1C` [Compound 146], the concentration for half-maximal inhibition (IC50) in assay [1] was 6.5 µM; in assay [2] (Homo sapiens, 647-V), 10 µM; in assay [3], 4 µM; in assay [4] it was 2.3 µM.
Turning to `CCn1ncc(CN(C)C(=O)c2nc(-c3ccc(OCCCNC(=O)OC(C)(C)C)c(C)c3)nc3ccc(Cl)cc23)c1C` [Compound 147], the IC50 is 7 µM in assay [1], 3.1 µM in assay [2], 0.47 µM in assay [3] and 7.9 µM in assay [4].
Take `CCn1ncc(CN(C)C(=O)c2nc(-c3ccc(OCCN(C)C(=O)OC(C)(C)C)c(OC)c3)nc3ccc(Cl)cc23)c1C` [Compound 148]: the IC50 in assay [1] was 7.2 µM; in assay [2] (Homo sapiens, 647-V), 3.9 µM; in assay [3], 7.5 µM; in assay [4], 11 µM.
Consider `CCn1ncc(CN(C)C(=O)c2cc(-c3cnc(CNC)[nH]3)nc3ccc(Cl)cc23)c1C` [Compound 149], for which the IC50 in assay [1] stood at 7.8 µM; in assay [2] (Homo sapiens, 647-V), 9.2 µM; in assay [3], 14 µM; in assay [4] it was 6.7 µM.
Consider `CCn1ncc(CN(C)C(=O)c2nc(-c3ccc(OCCN(C)C(=O)OC(C)(C)C)c(Cl)c3)nc3ccc(Cl)cc23)c1C` [Compound 151], for which the concentration for half-maximal inhibition (IC50) in assay [1] was 8.8 µM; in assay [2] (Homo sapiens, 647-V) it was 3.2 µM; in assay [3], 2.2 µM; in assay [4] it was 2.8 µM.
